Assay results: patent publication US20140045807A2, “THE USE OF 3-METHOXY-PREGNENOLONE FOR THE PREPARATION OF A DRUG FOR TREATING A TRAUMATIC BRAIN INJURY” (priority 2004, published 2014)
In brackets after ≈: the same amount, converted by molar mass.

Experiments:
PC12 cell line = assay: Cellular toxicity test; assay type: cell-based, rat; conditions: concentrations as high as solubility limits (approximately 50 μM)
Protocol: Cellular toxicity tests are carried out routinely on the PC12 cell line.

Solubility limit = assay type: physicochemical; conditions: read-out: solubility limits
[1] = In vivo toxicity, daily injection for one month; parameters: species or system rat; conditions: rats, daily injection for one month of 48 mg/kg
[2] = tested on: α-tubulin forms (Tyr/Glu-Tub, Acet-Tub) in rat hippocampus; assay: Microtubule dynamics in rat hippocampus after single administration; assay type: in vivo; conditions: 10 mg/kg subcutaneously, 3 h following injection
Source text: Mean±SEM, n=6 per group. **p<0.01, *[…] vs sesame oil.
The effects produced by neurosteroids were compared with those produced by acute administration of the antidepressant drug fluoxetine (selective serotonin reuptake inhibitor; SSRI).

Androgen Receptor (AR) = Androgen Receptor (AR) (Rattus norvegicus, UniProt P15207); assay: Radioligand binding assay, AR; conditions: MAP4343 10 μM; 1.5 nM [^3H] Mibolerone; Rat recombinant E. coli
Protocol: Binding affinity of 3-methoxy-PREG (MAP4343) for receptors of steroid hormones was evaluated using radioligand binding assays.

[3] = tested on: 80 different CNS neurotransmitters receptors; assay: Screen for in vitro affinity to 80 different CNS neurotransmitters receptors; assay type: binding
Source text: MAP4343 has been screened for in vitro affinity to 80 different CNS neurotransmitters receptors using various validated binding assays.

CCI-injured animals = assay: Histological analysis of the hippocampus size after CCI; assay type: in vivo, rat; conditions: 10 mg/kg and 20 mg/kg, first injection 2 h after TBI, day 35
Protocol: FIG. 18: Size of the hippocampus of CCI-injured animals, receiving the first injection of MAP4343 (or vehicle) 2 h after TBI. Data are expressed in percentage of the non-injured hippocampus of Dose 0 (vehicle) animals. ***: p<0.001 Dose 0 injured vs non-injured hippocampus; $: p<0.05 vs Dose 0 injured hippocampus.
CCI was performed with an electromagnetic impact device as described (MyNeurolab, St. Louis, Mo.; Brody et al. 2007). Anesthesized rats were subjected to a single right lateral CCI, with the following parameters: impact centered 4.0 mm anterior to lambda and 4.5 mm […] of midline, within the craniotomy of the animal. The impact was set at a velocity of 4 m/s with a sustained depression of 200 ms, using a 5.0 mm tip.
Frozen sections were stained with cresyl violet. For each section analyzed, the size of the hippocampus was determined by first outlining all remaining tissue of each section taken at 500 μm intervals through the lesion (right hemisphere) or contra lateral hemisphere, thus providing a total tissue area (mm2) of the two hemispheres for each section. Then, the areas of sections were summed per hemisphere.

GAP43 = assay: Western blot of GAP43 in cortex and hippocampus after CCI; assay type: in vivo, rat; conditions: first injection 2 h post-trauma, day 35, injured cortex (20 mg/kg only), hippocampus and non-injured cortex (both doses)
Protocol: FIG. 23: GAP43 expression, 35 days after TBI, in the left-uninjured and right-injured hemispheres (A: cortex and B: hippocampus) of CCI-injured animals, receiving either vehicle (D0) or MAP4343 (D1: 10 mg/kg and D2: 20 mg/kg), 2 h after injury.
Samples were analyzed by Western-blot at day 35 post-trauma (D35) to evaluate the effects of MAP4343 on: MAP2 (the target of MAP4343 and a modulator of microtubule function), the post-synaptic markers PSD95 and spinophilin, the pre-synaptic marker synaptophysin, and the axonal growth/integrity marker GAP43.
Western blot was performed on cortex and hippocampus of TBI-injured animals receiving the first injection of MAP4343 (at 10 mg/kg or 20 mg/kg) or vehicle (sesame oil) 2 h after injury.
The expression level of various neuronal brain markers of plasticity was measured at day 35 post-trauma by western-blots in the cortex and hippocampus of left uninjured and right injured cerebral hemispheres of CCI traumatized animals receiving either vehicle (sesame oil, CCI-D0) or 3-methoxy-PREG (MAP4343) at 10 mg/kg (CCI-D1) or 20 mg/kg (CCI-D2), with first MAP4343 injection 2 h post-trauma.

GFAP = GFAP immunostaining after Lateral Fluid Percussion (LFP); assay type: in vivo, rat; conditions: first injection 2 hours post-trauma, day 35, no statistical analysis
Protocol: FIG. 24: Quantification of GFAP immunostaining in LFP-injured animals. (A) GFAP immunostaining in injured cortex of LFP-injured animals injected with vehicle (sesame oil), or 3-methoxy-PREG (MAP4343) at 10 mg/kg or 20 mg/kg, with first injection at 2 hours post-trauma. (B) GFAP immunostaining in injured and uninjured thalamus of LFP-injured animals injected with vehicle (sesame oil), or 3-methoxy-PREG (MAP4343) at 10 mg/kg or 20 mg/kg, with first injection at 2 hours post-trauma. No statistical analysis has been performed.
After anesthesia induction, the animal was placed on a stereotaxic frame. […]
Trauma was induced by a fluid percussion device (Custom Design and Manufacturing, United Kingdom) (Besson et al., 2003): it is a cylindrical tank (60 cm long), with a piston on one side, over which a hammer exercises a constraint, and a male Luer-Lock on the other side. […] The amplitude of each shock wave was measured via a pressure transducer connected to the terminal portion of the device. The pressure signal was recorded on an oscilloscope. […]
After mounting on Superfrost slides, frozen sections were dried for 90 minutes at room temperature and stored at −80° C. until use. […] Immunostaining was quantitatively assessed by optical density measurements directly from the section image (Image J). […]

Sequence of Androgen Receptor (AR) (P15207 whole entry S389L): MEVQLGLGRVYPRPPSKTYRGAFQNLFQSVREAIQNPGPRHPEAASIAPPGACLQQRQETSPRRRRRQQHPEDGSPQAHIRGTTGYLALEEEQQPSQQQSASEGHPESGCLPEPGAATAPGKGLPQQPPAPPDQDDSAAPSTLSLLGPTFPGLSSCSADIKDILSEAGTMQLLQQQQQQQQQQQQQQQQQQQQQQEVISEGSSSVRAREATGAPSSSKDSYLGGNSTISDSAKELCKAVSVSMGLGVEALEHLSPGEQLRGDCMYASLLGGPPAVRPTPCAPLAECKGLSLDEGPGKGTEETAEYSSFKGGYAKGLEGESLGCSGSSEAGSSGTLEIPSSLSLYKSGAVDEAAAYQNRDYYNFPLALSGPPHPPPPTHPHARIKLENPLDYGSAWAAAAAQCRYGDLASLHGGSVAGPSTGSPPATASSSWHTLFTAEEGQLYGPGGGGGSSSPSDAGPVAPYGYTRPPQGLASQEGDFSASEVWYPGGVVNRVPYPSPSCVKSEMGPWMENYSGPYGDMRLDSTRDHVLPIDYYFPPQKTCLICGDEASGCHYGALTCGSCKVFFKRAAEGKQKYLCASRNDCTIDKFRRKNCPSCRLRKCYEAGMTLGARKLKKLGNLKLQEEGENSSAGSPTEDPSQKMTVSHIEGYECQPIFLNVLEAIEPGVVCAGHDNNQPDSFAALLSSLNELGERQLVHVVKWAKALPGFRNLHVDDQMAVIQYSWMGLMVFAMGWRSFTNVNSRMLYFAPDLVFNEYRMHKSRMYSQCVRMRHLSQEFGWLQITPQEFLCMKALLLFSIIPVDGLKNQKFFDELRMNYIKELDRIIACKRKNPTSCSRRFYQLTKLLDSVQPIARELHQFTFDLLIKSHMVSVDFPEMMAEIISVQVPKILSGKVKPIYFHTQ

Question: With `CO[C@H]1CC[C@@]2(C)C(=CC[C@H]3[C@@H]4CC[C@H](C(C)=O)[C@@]4(C)CC[C@@H]32)C1` [3-methoxy-PREG, 3β-methoxy-pregna-5-ene-20-one] as the compound, how does the cellular toxicity (PC12 cell line) read?
Answer: do not demonstrate toxicity

Question: And the solubility (Solubility limit)?
Answer: ~50 µM (≈ 16.5 µg/mL)

Question: And the “average weight and behavior” value [1]?
Answer: affected neither average weight nor behavior

Question: What about the “Acet-Tub (marker of stable microtubules)” value [2] of the same compound?
Answer: significantly decreased

Question: And the “Tyr/Glu-Tub ratio (index of microtubule dynamics)” value [2]?
Answer: significantly increased

Question: What about the “% inhibition of specific binding” value (Androgen Receptor (AR)) of the same compound?
Answer: < 25%

Question: And the “affinity for any tested receptor” value [3]?
Answer: no significant affinity

Question: And the “size of the injured hippocampus” value (CCI-injured animals)?
Answer: significantly increases the size of the injured hippocampus

Question: What about the GAP-43 expression (GAP43) of the same compound?
Answer: increased GAP-43 expression

Question: What about the “astrocytes GFAP immunoreactivity in the injured cortex” value (GFAP; 10 mg/kg or 20 mg/kg) of the same compound?
Answer: highly decreased

Question: And the “astrocytes immunoreactivity (GFAP) in the injured thalamus” value (GFAP; especially Dose2 (20 mg/kg))?
Answer: strongly decreases astrocytes immunoreactivity
